Measured values as given in the supplement of paper PMC10307832.

Assays:
Test in all cases: relative viability (nuclei count vs DMSO), 5 days (fraction); higher = more cells survive
[1] = tested on: NCI-H727
Method in brief: (§1)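 The day after seeding in 1536-well plates, lung cancer cell lines were treated by pin tool with a single drug, or with a fixed anchor-drug dose together with five library-drug doses (not always all listed) in √10 steps. After 5 days, a combined fix-and-stain solution (final 0.05% Triton X-100, 1% formaldehyde, 1 ug/ml Hoechst) was added. Nuclei counted on 4× images gave relative viability as treated counts over vehicle counts, reported as the median of duplicate plates.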

[2] = tested on: HCC-827
Method in brief: as §1

[3] = tested on: NCI-H2085
Method in brief: as §1

[4] = tested on: HCC-366
Method in brief: as §1

[5] = tested on: HCC-78
Method in brief: as §1

[6] = tested on: SK-LU-1
Method in brief: as §1

[7] = tested on: NCI-H1395
Method in brief: as §1

[8] = tested on: EPLC-272H
Method in brief: as §1

[9] = tested on: NCI-H1975
Method in brief: as §1

[10] = tested on: UMC-11
Method in brief: as §1

[11] = tested on: HCC-15
Method in brief: as §1

[12] = tested on: NCI-H1792
Method in brief: as §1

[13] = tested on: NCI-H661
Method in brief: as §1

[14] = tested on: NCI-H2405
Method in brief: as §1

[15] = tested on: NCI-H1944
Method in brief: as §1

[16] = tested on: COR-L23
Method in brief: as §1

[17] = tested on: HARA
Method in brief: as §1

[18] = tested on: NCI-H2023
Method in brief: as §1

[19] = tested on: COR-L 105
Method in brief: as §1

[20] = tested on: LCLC-103H
Method in brief: as §1

[21] = tested on: NCI-H358
Method in brief: as §1

[22] = tested on: NCI-H1437
Method in brief: as §1

[23] = tested on: HCC-44
Method in brief: as §1

O=c1[nH]c2ccccc2n1C1CCN(CCCC(c2ccc(F)cc2)c2ccc(F)cc2)CC1 [Pimozide] + COc1cccc2cc(-c3nc([C@H]4CC[C@H](C(=O)O)CC4)n4ncnc(N)c34)[nH]c12 [OSI-027] (partner 0.5 µM)
relative viability ([1]; first compound 0.08 µM): 0.717
relative viability ([1]; first compound 0.253 µM): 0.55
relative viability ([1]; first compound 0.8 µM): 0.512
relative viability ([1]; first compound 2.53 µM): 0.652
relative viability ([1]; first compound 8 µM): 0.54
relative viability ([2]; first compound 0.253 µM): 0.801
relative viability ([2]; first compound 0.8 µM): 0.738
relative viability ([2]; first compound 2.53 µM): 0.782
relative viability ([2]; first compound 8 µM): 0.769
relative viability ([3]; first compound 0.08 µM): 0.59
relative viability ([3]; first compound 0.253 µM): 0.736
relative viability ([3]; first compound 0.8 µM): 0.701
relative viability ([3]; first compound 2.53 µM): 0.709
relative viability ([3]; first compound 8 µM): 0.61
relative viability ([4]; first compound 0.08 µM): 0.825
relative viability ([4]; first compound 0.253 µM): 0.795
relative viability ([4]; first compound 0.8 µM): 0.477
relative viability ([4]; first compound 2.53 µM): 0.614
relative viability ([4]; first compound 8 µM): 0.206
relative viability ([5]; first compound 0.08 µM): 0.439
relative viability ([5]; first compound 0.8 µM): 0.345
relative viability ([5]; first compound 2.53 µM): 0.36
relative viability ([5]; first compound 8 µM): 0.354
relative viability ([6]; first compound 0.08 µM): 0.417
relative viability ([6]; first compound 0.253 µM): 0.331
relative viability ([6]; first compound 0.8 µM): 0.285
relative viability ([6]; first compound 2.53 µM): 0.231
relative viability ([6]; first compound 8 µM): 0.201
relative viability ([7]; first compound 0.08 µM): 0.642
relative viability ([7]; first compound 0.253 µM): 0.611
relative viability ([7]; first compound 0.8 µM): 0.565
relative viability ([7]; first compound 2.53 µM): 0.629
relative viability ([7]; first compound 8 µM): 0.557
relative viability ([8]; first compound 0.08 µM): 0.276
relative viability ([8]; first compound 0.253 µM): 0.302
relative viability ([8]; first compound 0.8 µM): 0.25
relative viability ([8]; first compound 2.53 µM): 0.176
relative viability ([8]; first compound 8 µM): 0.234
relative viability ([9]; first compound 0.08 µM): 0.838
relative viability ([9]; first compound 0.253 µM): 0.695
relative viability ([9]; first compound 0.8 µM): 0.753
relative viability ([9]; first compound 2.53 µM): 0.651
relative viability ([9]; first compound 8 µM): 0.561
relative viability ([10]; first compound 0.08 µM): 0.515
relative viability ([10]; first compound 0.253 µM): 0.421
relative viability ([10]; first compound 0.8 µM): 0.51
relative viability ([10]; first compound 2.53 µM): 0.357
relative viability ([10]; first compound 8 µM): 0.312
relative viability ([11]; first compound 0.08 µM): 0.817
relative viability ([11]; first compound 0.253 µM): 0.668
relative viability ([11]; first compound 0.8 µM): 0.472
relative viability ([11]; first compound 2.53 µM): 0.618
relative viability ([11]; first compound 8 µM): 0.573
relative viability ([12]; first compound 0.08 µM): 0.758
relative viability ([12]; first compound 0.253 µM): 0.691
relative viability ([12]; first compound 0.8 µM): 0.666
relative viability ([12]; first compound 2.53 µM): 0.663
relative viability ([12]; first compound 8 µM): 0.736
relative viability ([13]; first compound 0.08 µM): 0.691
relative viability ([13]; first compound 0.253 µM): 0.647
relative viability ([13]; first compound 0.8 µM): 0.624
relative viability ([13]; first compound 2.53 µM): 0.533
relative viability ([13]; first compound 8 µM): 0.538
relative viability ([14]; first compound 0.08 µM): 0.654
relative viability ([14]; first compound 0.253 µM): 0.576
relative viability ([14]; first compound 0.8 µM): 0.689
relative viability ([14]; first compound 2.53 µM): 0.665
relative viability ([14]; first compound 8 µM): 0.707
relative viability ([15]; first compound 0.08 µM): 0.347
relative viability ([15]; first compound 0.253 µM): 0.417
relative viability ([15]; first compound 0.8 µM): 0.33
relative viability ([15]; first compound 2.53 µM): 0.389
relative viability ([15]; first compound 8 µM): 0.37
relative viability ([16]; first compound 0.08 µM): 0.757
relative viability ([16]; first compound 0.253 µM): 0.75
relative viability ([16]; first compound 0.8 µM): 0.694
relative viability ([16]; first compound 2.53 µM): 0.731
relative viability ([16]; first compound 8 µM): 0.639
relative viability ([17]; first compound 0.253 µM): 0.518
relative viability ([17]; first compound 0.8 µM): 0.196
relative viability ([17]; first compound 2.53 µM): 0.384
relative viability ([17]; first compound 8 µM): 0.264
relative viability ([18]; first compound 0.08 µM): 0.418
relative viability ([18]; first compound 0.253 µM): 0.465
relative viability ([18]; first compound 0.8 µM): 0.413
relative viability ([18]; first compound 2.53 µM): 0.307
relative viability ([18]; first compound 8 µM): 0.231
relative viability ([19]; first compound 0.253 µM): 0.778
relative viability ([19]; first compound 0.8 µM): 0.617
relative viability ([19]; first compound 2.53 µM): 0.64
relative viability ([19]; first compound 8 µM): 0.58
relative viability ([20]; first compound 0.08 µM): 0.482
relative viability ([20]; first compound 0.253 µM): 0.452
relative viability ([20]; first compound 0.8 µM): 0.384
relative viability ([20]; first compound 2.53 µM): 0.425
relative viability ([20]; first compound 8 µM): 0.423
relative viability ([21]; first compound 0.08 µM): 0.829
relative viability ([21]; first compound 0.253 µM): 0.74
relative viability ([21]; first compound 0.8 µM): 0.697
relative viability ([21]; first compound 2.53 µM): 0.646
relative viability ([21]; first compound 8 µM): 0.678
relative viability ([22]; first compound 0.08 µM): 0.93
relative viability ([22]; first compound 0.253 µM): 0.888
relative viability ([22]; first compound 0.8 µM): 0.883
relative viability ([22]; first compound 2.53 µM): 0.89
relative viability ([22]; first compound 8 µM): 0.676
relative viability ([23]; first compound 0.08 µM): 0.489
relative viability ([23]; first compound 0.253 µM): 0.554
relative viability ([23]; first compound 0.8 µM): 0.4
relative viability ([23]; first compound 2.53 µM): 0.52
relative viability ([23]; first compound 8 µM): 0.289
